How the values were obtained:
[1] = cited from earlier work; for Highest water content: water content varies in different conditions
[2] = Intrinsic dissolution rate in pH 2.5 HCl/NaCl aqueous solution; format: physicochemical; conditions: for Cumulative dissolution / IDR (intrinsic dissolution rate): pH 2.5 HCl/NaCl, 37° C.; for Cumulative dissolution: 0.5 cm^2 pellet; for IDR (intrinsic dissolution rate): slope over 0-45 minutes
Description: (§1) Approximately 200 mg of Form A and Form I in WO2017002095A1 were added into the die, compressed at 10 kN and held for 1 minute to obtain a pellet having a surface area of 0.5 cm^2. The whole tool with the pellet was transferred to a dissolution apparatus to test the intrinsic dissolution rate. The slope (mg/min) was calculated according to the data within 0-45 minutes. Intrinsic dissolution rate (IDR, mg/min/cm^2) was further calculated according to the slope.
as §1, with “Form D” for “Form A”
as §1, with “Form F” for “Form A”, “intrinsic dissolution.” for “intrinsic dissolution rate.”
as §1, with “Form G” for “Form A”, “intrinsic dissolution.” for “intrinsic dissolution rate.”
as §1, with “Form CS15” for “Form A”, “intrinsic dissolution.” for “intrinsic dissolution rate.”

[3] = Compressibility (tensile strength of compressed tablet); format: physicochemical; conditions: about 80 mg, φ6 mm round tooling, compressed at 10 kN
Description: (§2) Approximately 80 mg of Form A and Form I in WO2017002095A1 were weighed into the dies of a φ6 mm round tooling, compressed at 10 kN manually, then stored in a desiccator for 24 hours until complete elastic recovery. Radial crushing force (hardness, H) was tested with an intelligent tablet hardness tester. Diameter (D) and thickness (L) were tested with a caliper. Tensile strength of the powder that with different hardness was calculated with the following formula: T=2H/πDL. Under a certain force, the greater the tensile strength, the better the compressibility.
as §2, with “Form D” for “Form A”, “manually, and” for “manually,”, “powder” for “powder that”
as §2, with “of Form F and Form” for “of Form A and Form”, “kN manually, and then stored” for “kN manually, then stored”, “tested with caliper. Tensile” for “tested with a caliper. Tensile”, “the powder with different” for “the powder that with different”
Approximately 80 mg of Form G and Form I of WO2017002095A1 were weighed into the dies of a φ6 mm round tooling, compressed at 10 kN manually, and then stored in a desiccator for 24 hours until complete elastic recovery. Radial crushing force (hardness, H)) was tested with an intelligent tablet hardness tester. Diameter (D) and thickness (L) were tested with caliper. Tensile strength of the powder with different hardness was calculated with the following formula: T=2H/πDL. Under a certain force, the greater the tensile strength, the better the compressibility.
as §2, with “of Form CS15 and Form” for “of Form A and Form”, “kN manually, and then stored” for “kN manually, then stored”, “tested with caliper. Tensile” for “tested with a caliper. Tensile”, “the powder with different” for “the powder that with different”

[4] = Adhesiveness (amount of material sticking to the punch); format: physicochemical; conditions: about 30 mg, φ8 mm round tooling, 10 kN, compression repeated twice
Description: (§3) Approximately 30 mg of Form A and Form I in WO2017002095A1 were weighed, added into the dies of a φ8 mm round tooling, compressed at 10 kN and held for about 30 s. The amount of material sticking to the punch was weighed. The compression was repeated twice and the cumulative amount and average amount of material sticking to the punch during the compression were recorded.
as §3, with “Form F” for “Form A”
as §3, with “Form G” for “Form A”

[5] = Stability of crystalline form on storage, checked by XRPD; format: physicochemical; conditions: for Solid form: 2 months, XRPD
Description: Approximately 10 mg of Form A of the present disclosure was weighed and stored at different conditions of 25° C./60% RH in open dish, 25° C./60% RH in closed dish, 40° C./75% RH in open dish, and 40° C./75% RH in closed dish. Crystalline forms were checked by XRPD.
Approximately 10 mg of Form D of the present disclosure was weighed and stored at different conditions of 25° C./60% RH in closed dish, 25° C./60% RH in open dish, 40° C./75% RH in closed dish. Crystalline form was checked by XRPD.
Approximately 10 mg of Form F of the present disclosure was weighed and stored at different conditions of 25° C./60% RH in closed dish, 25° C./60% RH in open dish, and 40° C./75% RH in closed dish, 40° C./75% RH in open dish. Crystalline forms were checked by XRPD.
Approximately 10 mg of Form G of the present disclosure was weighed and stored at 25° C./60% RH in closed dish. Crystalline forms were checked by XRPD.
Approximately 10 mg of Form CS15 of the present disclosure was weighed and stored at different conditions of 25° C./60% RH in open dish, 25° C./60% RH in closed dish. Crystalline forms were checked by XRPD.

Row | Structure (SMILES) | Highest water content [1] [%] | Stability of the crystalline form ([1]; as disclosed in WO2017002095A1) | Cumulative dissolution ([2]; 0 min) [mg] | Cumulative dissolution ([2]; 5 min) [mg] | Cumulative dissolution ([2]; 10 min) [mg] | Cumulative dissolution ([2]; 15 min) [mg] | Cumulative dissolution ([2]; 20 min) [mg] | Cumulative dissolution ([2]; 25 min) [mg] | Cumulative dissolution ([2]; 30 min) [mg] | Cumulative dissolution ([2]; 35 min) [mg] | Cumulative dissolution ([2]; 45 min) [mg] | IDR (intrinsic dissolution rate) [2] [mg/min/cm^2] | Tensile strength [3] | further results
1 | CC#CC(=O)N1CCC[C@H]1c1nc(-c2ccc(C(=O)Nc3ccccn3)cc2)c2c(N)nccn12 [Crystalline form II, (S)-4-(8-amino-3-(1-(but-2-ynoyl)pyrrolidin-2-yl)imidazo[1,5-a]pyrazin-1-yl)-N-(pyridin-2-yl)benzamide] | 10 | – | – | – | – | – | – | – | – | – | – | – | – | Flowability ([1]; as disclosed in WO2017002095A1): poor
2 | CC#CC(=O)N1CCC[C@H]1c1nc(-c2ccc(C(=O)Nc3ccccn3)cc2)c2c(N)nccn12 [Crystalline form III, (S)-4-(8-amino-3-(1-(but-2-ynoyl)pyrrolidin-2-yl)imidazo[1,5-a]pyrazin-1-yl)-N-(pyridin-2-yl)benzamide] | 8 | unstable | – | – | – | – | – | – | – | – | – | – | – | –
3 | CC#CC(=O)N1CCC[C@H]1c1nc(-c2ccc(C(=O)Nc3ccccn3)cc2)c2c(N)nccn12 [Form I in WO2017002095A1, (S)-4-(8-amino-3-(1-(but-2-ynoyl)pyrrolidin-2-yl)imidazo[1,5-a]pyrazin-1-yl)-N-(pyridin-2-yl)benzamide, reference compound] | – | – | 0.00 | 0.92 | 1.64 | 2.81 | 3.66 | 4.62 | 5.58 | 6.40 | 8.16 | 0.3656 | Unable to be compressed | Average amount (material sticking to the punch) [4]: 45 µg; Cumulative amount (material sticking to the punch) [4]: 90 µg
4 | CC#CC(=O)N1CCC[C@H]1c1nc(-c2ccc(C(=O)Nc3ccccn3)cc2)c2c(N)nccn12 [Crystalline form IV, (S)-4-(8-amino-3-(1-(but-2-ynoyl)pyrrolidin-2-yl)imidazo[1,5-a]pyrazin-1-yl)-N-(pyridin-2-yl)benzamide] | – | unstable | – | – | – | – | – | – | – | – | – | – | – | –
5 | CC#CC(=O)N1CCC[C@H]1c1nc(-c2ccc(C(=O)Nc3ccccn3)cc2)c2c(N)nccn12 [Form D, (S)-4-(8-amino-3-(1-(but-2-ynoyl)pyrrolidin-2-yl)imidazo[1,5-a]pyrazin-1-yl)-N-(pyridin-2-yl)benzamide] | – | – | 0.00 | 0.70 | 1.73 | 2.82 | 3.57 | 4.77 | 6.26 | 7.36 | 9.72 | 0.4112 | 0.83 MPa | IDR relative to that of Form I in WO2017002095A1 ([2]; pH 2.5 HCl/NaCl solution): 1.1 times; Time kept stable (crystalline state doesn't change) ([5]; 25° C./60% RH in closed dish): at least 2 months; Solid form ([5]; 25° C./60% RH in closed dish): Form D; Chemical purity on storage ([5]; 25° C./60% RH in open and closed dishes, at least 2 months): remains substantially unchanged; Time kept stable (crystalline state doesn't change) ([5]; 25° C./60% RH in open dish): at least 2 months; Solid form ([5]; 25° C./60% RH in open dish): Form D; Time kept stable (crystalline state doesn't change) ([5]; 40° C./75% RH in closed dish): at least 2 months; Solid form ([5]; 40° C./75% RH in closed dish): Form D

From patent US11091494B2, “Crystal form of acalabrutinib and preparation method and use thereof” (Crystal Pharmaceutical (Suzhou) Co., Ltd., priority 2018, dated 2021)
